In article PMC5128878 (Scientific Reports, 2016):
Several values for one entry are separate records, joined by “and”; a condition that tells them apart may be missing. Equal values may be shown once. Read-outs that look alike come from different tables or passages of the source.

Experiments:
α4β2 nAChR = target: T1, α4β2 nAChR (Rattus norvegicus, UniProt P09483+P12390); test: cell-based; type: cell-based; conditions: for IC50: IC50 (95% CI), ACh 10 μM
T1 construct: expressed in transfected cells; host or cells: Xenopus laevis oocytes injected with cRNA
Experimental: (§1) cDNA clones of rat neuronal nAChR subunits (α3, α4, β2 and β4) and mouse muscle subunits (α1, β1, γ and δ) were from the Salk Institute for Biological Studies (Professor Stephen Heinemann). The human α7 and RIC-3 cDNAs were provided by Professor David Sattelle (University College London).
(§2) Oocytes isolated from mature female Xenopus laevis were supplied by the European Xenopus Resource Centre, University of Portsmouth, UK. Oocytes were treated with collagenase (0.5 mg/ml, Sigma type 1 A) in Ca^2+-free solution (96 mM NaCl, 2 mM KCl, 1 mM MgCl2, 5 mM HEPES, 2.5 mM Na-pyruvate, 100 U/mL penicillin, 0.1 mg/mL streptomycin, pH 7.5) with shaking at 19 °C to defolliculate and remove the connective tissue surrounding the cells. After separation, oocytes were washed 7 times with modified Barth’s solution (96 mM NaCl, 2 mM KCl, 1.8 mM CaCl2, 1 mM MgCl2, 5 mM HEPES, 2.5 mM Na-pyruvate, 0.5 mM theophylline, 50 μg/mL gentamicin, pH 7.5) and kept at 19 °C in the same solution.
(§3) Healthy oocytes were injected with cRNA using a Nano-liter Injector (World Precision Instruments Inc, USA). Mixtures of nAChR subunit cRNAs were injected as follows; for heteromeric rat neuronal receptors a 1:1 ratio of α:β at 200 ng/μL; for mouse embryonic muscle a 1:1:1:1 ratio of α:β:γ:δ at 25 ng/μL; human α7 at 100 ng/μL was mixed with RIC-3 at 30 ng/μL. Each oocyte was injected with 50 nL of RNA solution. Injected oocytes were saved in Barth’s solution at 19 °C for two to three days for expression of the target protein. During this time oocytes were regularly checked to remove unhealthy ones.
(§4) Electrophysiological recordings were taken from nAChR-expressing oocytes by two-electrode voltage clamp using a Geneclamp 500 voltage clamp amplifier (Axon instruments, USA). An oocyte was placed in the perfusion chamber using a plastic Pasteur pipette and the bath was perfused (~5 mL/min) with fresh Frog Ringer solution (96 mM NaCl, 2 mM KCl, 1.8 mM CaCl2 and 5 mM HEPES, pH 7.5). Microelectrodes were pulled from borosilicate glass capillaries (Harvard GC150TF-10) using a programmable micropipette puller (Sutter P97, USA), and they had resistances between 0.5 and 2.5 MΩ when filled with 3 M KCl. The oocyte was voltage-clamped at holding potentials (VH) between −60 and −100 mV. […] Currents were recorded to a PC via a digidata 1200 analog-to-digital converter (Axon Instuments, USA) using WinEDR v3.2.6 Software (Dr John Dempster, University of Strathclyde, UK).
(§5) Graphpad Prism 6 was used for data analysis, graph plotting and curve fitting. All plotted points are the mean ± SEM obtained from 4–20 oocytes.

α4β2(V253F) nAChR = target: T2, α4β2(V253F) nAChR (Rattus norvegicus, UniProt P09483+P12390, V277F); test: Two-electrode voltage clamp of ACh currents, α4β2(V253F) nAChRs expressed in Xenopus oocytes; type: cell-based; conditions: for IC50: α4β2(V253F), ACh 10 μM
T2 construct: expressed in transfected cells; host or cells: Xenopus laevis oocytes injected with cRNA
Experimental: as §1, §2, §3, §4, §5

α4β4 nAChR = target: T3, α4β4 nAChR (Rattus norvegicus, UniProt P09483+P12392); test: cell-based; type: cell-based; conditions: for IC50: IC50 (95% CI), ACh 10 μM
T3 construct: expressed in transfected cells; host or cells: Xenopus laevis oocytes injected with cRNA
Experimental: as §2, §3, §4, §5

α3β4 nAChR = target: T4, α3β4 nAChR (Rattus norvegicus, UniProt P04757+P12392); test: cell-based
T4 construct: expressed in transfected cells; host or cells: Xenopus laevis oocytes injected with cRNA
Experimental: as §2, §3, §4, §5

α3β4(F255V) nAChR = target: T5, α3β4(F255V) nAChR (Rattus norvegicus, UniProt P04757+P12392, F275V); test: Two-electrode voltage clamp of ACh currents, α3β4(F255V) nAChRs expressed in Xenopus oocytes; type: cell-based; conditions: for IC50: α3β4(F255V), ACh 100 μM
T5 construct: expressed in transfected cells; host or cells: Xenopus laevis oocytes injected with cRNA
Experimental: as §1, §2, §3, §4, §5

α7 nAChR = target: T6, α7 nAChR (Homo sapiens, UniProt P36544); test: Two-electrode voltage clamp of ACh currents, α7 nAChRs (with RIC-3) expressed in Xenopus oocytes; type: cell-based; conditions: for IC50: IC50 (95% CI), ACh 100 μM
T6 construct: expressed in transfected cells; host or cells: Xenopus laevis oocytes injected with cRNA
Experimental: as §2, §3, §4, §5

α1β1γδ nAChR = target: T7, α1β1γδ nAChR (Mus musculus, UniProt P02716+P04756+P04760+P09690); test: cell-based; type: cell-based; conditions: α1β1γδ; for IC50: IC50 (95% CI), ACh 10 μM
T7 construct: expressed in transfected cells; host or cells: Xenopus laevis oocytes injected with cRNA
Experimental: as §2, §3, §4, §5

[1] = system: human muscle-type nAChRs in TE671 cells; test: Muscle-type nAChRs in TE671 cells (previous study); type: cell-based; conditions: previous study compared with present oocyte data ref 8
nAChRs = test: Two-electrode voltage clamp of Xenopus oocytes expressing nAChRs, statements across tested subtypes; type: cell-based
Experimental: as §1, §2, §3, §4, §5

α3β2 nAChR = α3β2 nAChR (Rattus norvegicus, UniProt P04757+P12390); test: Two-electrode voltage clamp of ACh currents, α3β2 nAChRs expressed in Xenopus oocytes; conditions: for IC50: IC50 (95% CI), ACh 30 μM
Experimental: as §2, §3, §4, §5

[2] = VH −60 mV, late current (1 min), read-out: IC50 (95% CI), Late
[3] = VH −60 mV, peak current, read-out: IC50 (95% CI), Peak
[4] = VH −80 mV, late current (1 min), read-out: IC50 (95% CI), Late
[5] = VH −80 mV, peak current, read-out: IC50 (95% CI), Peak
[6] = VH −100 mV, late current (1 min), read-out: IC50 (95% CI), Late
[7] = VH −100 mV, peak current, read-out: IC50 (95% CI), Peak

T7 sequence (P04756 21-457): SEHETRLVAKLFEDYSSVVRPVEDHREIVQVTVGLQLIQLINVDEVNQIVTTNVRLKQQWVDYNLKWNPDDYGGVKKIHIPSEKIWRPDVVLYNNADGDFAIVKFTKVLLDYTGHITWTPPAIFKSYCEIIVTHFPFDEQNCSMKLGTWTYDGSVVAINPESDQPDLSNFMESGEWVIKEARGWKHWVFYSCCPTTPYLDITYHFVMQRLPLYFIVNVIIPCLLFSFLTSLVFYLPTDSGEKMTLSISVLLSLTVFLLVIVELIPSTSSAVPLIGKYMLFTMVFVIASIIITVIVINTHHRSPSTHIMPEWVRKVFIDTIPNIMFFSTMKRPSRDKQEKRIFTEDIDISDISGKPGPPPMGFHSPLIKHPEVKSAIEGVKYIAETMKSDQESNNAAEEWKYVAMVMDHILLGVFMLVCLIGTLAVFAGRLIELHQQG
T7 sequence (P09690 24-501): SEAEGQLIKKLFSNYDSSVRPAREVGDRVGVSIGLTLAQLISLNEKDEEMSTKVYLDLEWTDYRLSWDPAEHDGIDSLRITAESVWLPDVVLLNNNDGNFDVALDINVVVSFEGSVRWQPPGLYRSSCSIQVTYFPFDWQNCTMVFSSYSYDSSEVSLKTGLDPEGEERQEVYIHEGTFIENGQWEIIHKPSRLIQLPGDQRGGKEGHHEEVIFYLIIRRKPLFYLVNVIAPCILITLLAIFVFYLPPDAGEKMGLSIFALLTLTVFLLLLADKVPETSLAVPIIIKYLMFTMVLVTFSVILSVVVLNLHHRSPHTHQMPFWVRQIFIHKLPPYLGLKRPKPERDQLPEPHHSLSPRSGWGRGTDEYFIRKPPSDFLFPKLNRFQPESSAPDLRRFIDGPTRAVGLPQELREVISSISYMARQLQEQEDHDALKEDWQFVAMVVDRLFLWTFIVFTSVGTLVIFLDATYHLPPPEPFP
T7 sequence (P04760 23-519): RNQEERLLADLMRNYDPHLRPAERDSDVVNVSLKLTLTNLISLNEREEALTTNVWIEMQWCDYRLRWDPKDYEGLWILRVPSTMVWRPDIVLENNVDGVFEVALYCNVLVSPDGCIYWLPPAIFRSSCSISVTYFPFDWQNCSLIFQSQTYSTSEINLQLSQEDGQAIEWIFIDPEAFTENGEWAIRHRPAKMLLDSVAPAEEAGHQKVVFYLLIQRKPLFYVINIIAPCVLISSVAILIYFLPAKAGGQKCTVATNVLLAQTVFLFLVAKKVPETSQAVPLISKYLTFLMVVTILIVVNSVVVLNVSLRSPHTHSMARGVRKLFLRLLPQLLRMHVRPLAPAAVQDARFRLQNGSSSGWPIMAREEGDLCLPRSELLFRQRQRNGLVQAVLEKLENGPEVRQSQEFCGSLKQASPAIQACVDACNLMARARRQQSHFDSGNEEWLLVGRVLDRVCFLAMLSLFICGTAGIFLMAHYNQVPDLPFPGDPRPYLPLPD
T7 sequence (P02716 25-520): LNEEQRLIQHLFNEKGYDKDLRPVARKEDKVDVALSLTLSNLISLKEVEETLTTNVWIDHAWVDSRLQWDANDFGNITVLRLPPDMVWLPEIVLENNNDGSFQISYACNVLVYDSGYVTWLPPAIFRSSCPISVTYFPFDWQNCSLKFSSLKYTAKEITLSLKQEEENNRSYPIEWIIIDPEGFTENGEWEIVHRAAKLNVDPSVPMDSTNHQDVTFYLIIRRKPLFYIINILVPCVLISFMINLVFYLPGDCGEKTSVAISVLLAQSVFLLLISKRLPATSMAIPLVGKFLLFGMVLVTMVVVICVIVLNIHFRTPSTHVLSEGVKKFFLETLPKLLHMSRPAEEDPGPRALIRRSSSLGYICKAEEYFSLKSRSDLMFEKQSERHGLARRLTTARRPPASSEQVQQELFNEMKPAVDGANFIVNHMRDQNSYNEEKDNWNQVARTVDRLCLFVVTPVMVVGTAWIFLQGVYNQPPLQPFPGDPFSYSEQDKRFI
α3β2 nAChR, sequence (P04757 26-499): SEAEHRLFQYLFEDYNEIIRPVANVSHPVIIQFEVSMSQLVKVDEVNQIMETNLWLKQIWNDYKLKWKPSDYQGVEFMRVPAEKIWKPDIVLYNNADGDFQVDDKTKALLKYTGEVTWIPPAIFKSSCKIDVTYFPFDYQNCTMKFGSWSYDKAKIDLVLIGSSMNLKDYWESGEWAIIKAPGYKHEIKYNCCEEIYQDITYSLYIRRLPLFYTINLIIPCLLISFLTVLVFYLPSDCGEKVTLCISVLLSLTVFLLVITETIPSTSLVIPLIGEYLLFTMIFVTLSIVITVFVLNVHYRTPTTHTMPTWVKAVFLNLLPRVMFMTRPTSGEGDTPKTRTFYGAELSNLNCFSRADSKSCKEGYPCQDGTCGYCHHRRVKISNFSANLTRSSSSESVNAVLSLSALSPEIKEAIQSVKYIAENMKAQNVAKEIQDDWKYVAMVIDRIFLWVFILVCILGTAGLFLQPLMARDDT
α3β2 nAChR, sequence (P12390 25-500): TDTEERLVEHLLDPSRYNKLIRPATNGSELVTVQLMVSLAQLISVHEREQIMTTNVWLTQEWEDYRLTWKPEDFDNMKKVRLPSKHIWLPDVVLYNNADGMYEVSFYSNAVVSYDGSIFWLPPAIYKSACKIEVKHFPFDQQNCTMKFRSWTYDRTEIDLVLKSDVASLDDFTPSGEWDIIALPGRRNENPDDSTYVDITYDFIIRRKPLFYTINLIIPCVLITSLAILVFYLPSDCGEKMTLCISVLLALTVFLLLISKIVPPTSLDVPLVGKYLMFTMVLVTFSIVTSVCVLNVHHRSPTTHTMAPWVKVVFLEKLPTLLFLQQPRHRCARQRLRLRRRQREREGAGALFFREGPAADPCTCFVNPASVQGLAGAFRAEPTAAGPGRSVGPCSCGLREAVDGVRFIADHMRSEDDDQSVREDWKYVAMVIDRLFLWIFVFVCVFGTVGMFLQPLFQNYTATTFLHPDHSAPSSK
T5 sequence (P04757 26-499): as the sequence (P04757 26-499) above
T5 sequence (P12392 21-495 F275V): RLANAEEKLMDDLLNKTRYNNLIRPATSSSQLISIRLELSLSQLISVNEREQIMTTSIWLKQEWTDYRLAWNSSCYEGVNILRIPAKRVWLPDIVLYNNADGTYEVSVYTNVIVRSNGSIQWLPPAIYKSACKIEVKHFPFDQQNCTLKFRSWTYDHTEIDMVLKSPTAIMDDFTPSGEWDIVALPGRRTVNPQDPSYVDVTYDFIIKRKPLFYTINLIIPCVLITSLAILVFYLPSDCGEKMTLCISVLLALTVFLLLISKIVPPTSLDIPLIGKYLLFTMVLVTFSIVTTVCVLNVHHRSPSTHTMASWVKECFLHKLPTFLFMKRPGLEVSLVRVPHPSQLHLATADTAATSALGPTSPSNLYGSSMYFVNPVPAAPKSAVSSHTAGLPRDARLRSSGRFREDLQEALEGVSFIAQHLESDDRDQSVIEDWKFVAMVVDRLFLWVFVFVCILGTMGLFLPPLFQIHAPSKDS
T4 sequence (P04757 26-499): as the sequence (P04757 26-499) above
T4 sequence (P12392 21-495): as the sequence (P12392 21-495 F275V) above, with V255F counted along it
T6 sequence (P36544 23-502): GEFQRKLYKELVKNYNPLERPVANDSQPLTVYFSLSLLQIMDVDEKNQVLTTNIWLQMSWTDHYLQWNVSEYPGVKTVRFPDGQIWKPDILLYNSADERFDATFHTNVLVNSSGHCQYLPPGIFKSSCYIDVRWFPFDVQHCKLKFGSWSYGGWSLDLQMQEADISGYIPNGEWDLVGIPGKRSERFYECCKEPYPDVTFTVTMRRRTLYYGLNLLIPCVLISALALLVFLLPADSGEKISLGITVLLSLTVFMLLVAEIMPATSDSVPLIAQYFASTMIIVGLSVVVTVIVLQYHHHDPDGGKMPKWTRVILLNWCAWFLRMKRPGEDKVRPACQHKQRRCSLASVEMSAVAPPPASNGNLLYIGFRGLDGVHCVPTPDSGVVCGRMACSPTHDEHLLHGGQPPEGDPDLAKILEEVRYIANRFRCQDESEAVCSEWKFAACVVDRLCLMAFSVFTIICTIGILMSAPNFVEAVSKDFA
T1 sequence (P09483 31-630): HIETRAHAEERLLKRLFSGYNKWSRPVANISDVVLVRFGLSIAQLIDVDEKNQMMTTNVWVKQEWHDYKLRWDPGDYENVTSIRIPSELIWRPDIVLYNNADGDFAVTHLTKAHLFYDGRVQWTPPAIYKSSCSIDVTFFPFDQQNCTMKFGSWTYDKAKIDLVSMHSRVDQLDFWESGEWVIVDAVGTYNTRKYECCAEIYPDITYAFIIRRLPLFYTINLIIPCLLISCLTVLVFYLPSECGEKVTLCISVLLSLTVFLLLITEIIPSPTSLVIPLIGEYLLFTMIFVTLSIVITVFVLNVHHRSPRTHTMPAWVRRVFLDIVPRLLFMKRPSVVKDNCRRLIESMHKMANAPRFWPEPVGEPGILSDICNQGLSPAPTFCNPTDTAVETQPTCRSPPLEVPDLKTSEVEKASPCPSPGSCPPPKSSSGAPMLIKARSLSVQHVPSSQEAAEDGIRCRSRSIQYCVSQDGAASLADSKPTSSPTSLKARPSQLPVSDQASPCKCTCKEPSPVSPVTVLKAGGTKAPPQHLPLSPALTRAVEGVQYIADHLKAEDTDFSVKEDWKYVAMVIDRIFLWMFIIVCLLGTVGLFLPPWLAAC
T1 sequence (P12390 25-500): as the sequence (P12390 25-500) above
T3 sequence (P09483 31-630): as the sequence (P09483 31-630) above
T3 sequence (P12392 21-495): as the sequence (P12392 21-495 F275V) above, with V255F counted along it
T2 sequence (P09483 31-630, stated change not applied): as the sequence (P09483 31-630) above
T2 sequence (P12390 25-500 V277F): as the sequence (P12390 25-500) above, with V253F counted along it

CCCC(=O)N[C@@H](Cc1ccc(O)cc1)C(=O)NCCCCCCCCCCCCN [PhTX-12]
IC50 (α4β2 nAChR; Late, α4β2, VH −60 mV, late current (1 min)): 230 nM | IC50 (α4β2 nAChR; Late, α4β2, VH −80 mV, late current (1 min)): 280 nM | IC50 (α4β2 nAChR; Late, α4β2, VH −100 mV, late current (1 min)): 44 nM | IC50 (α4β2 nAChR; Peak, α4β2, VH −60 mV, peak current): 3870 nM | IC50 (α4β2 nAChR; Peak, α4β2, VH −80 mV, peak current): 2170 nM | IC50 (α4β2 nAChR; Peak, α4β2, VH −100 mV, peak current): 1640 nM | times less sensitive than the most sensitive subtype (α4β2 nAChR; α4β2 vs α3β4 (for PhTX-12: α1β1γδ along with α3β4), late current IC50, −80 mV): 3 times | reduction in late current IC50 as compared to α4β2 (α4β2(V253F) nAChR; α4β2(V253F) vs α4β2, late current, −80 mV): no significant differences | change in peak current IC50 as compared to α4β2 (α4β2(V253F) nAChR; α4β2(V253F) vs α4β2, peak current, −80 mV): no significant differences | IC50 (α4β2(V253F) nAChR; [2]): 410 nM | IC50 (α4β2(V253F) nAChR; [3]): 2220 nM | IC50 (α4β2(V253F) nAChR; [4]): 300 nM | IC50 (α4β2(V253F) nAChR; [5]): 4050 nM | IC50 (α4β2(V253F) nAChR; [6]): 190 nM | IC50 (α4β2(V253F) nAChR; [7]): 3480 nM | IC50 (α4β4 nAChR; Late, α4β4, VH −60 mV, late current (1 min)): 250 nM | IC50 (α4β4 nAChR; Late, α4β4, VH −80 mV, late current (1 min)): 290 nM | IC50 (α4β4 nAChR; Late, α4β4, VH −100 mV, late current (1 min)): 190 nM | IC50 (α4β4 nAChR; Peak, α4β4, VH −60 mV, peak current): 1210 nM | IC50 (α4β4 nAChR; Peak, α4β4, VH −80 mV, peak current): 1650 nM | IC50 (α4β4 nAChR; Peak, α4β4, VH −100 mV, peak current): 2770 nM | voltage dependence of inhibition, late current (α4β4 nAChR; α4β4, late current IC50 values, VH −60 to −100 mV): voltage-independent | times less sensitive than the most sensitive subtype (α4β4 nAChR; α4β4 vs α3β4 (for PhTX-12: α1β1γδ along with α3β4), late current IC50, −80 mV): 3 times | IC50 (α3β4 nAChR; IC50 (95% CI), Late, α3β4, VH −60 mV, late current (1 min), ACh 100 μM): 110 nM | IC50 (α3β4 nAChR; IC50 (95% CI), Late, α3β4, VH −80 mV, late current (1 min), ACh 100 μM): 110 nM | IC50 (α3β4 nAChR; IC50 (95% CI), Late, α3β4, VH −100 mV, late current (1 min), ACh 100 μM): 27 nM | IC50 (α3β4 nAChR; IC50 (95% CI), Peak, α3β4, VH −60 mV, peak current, ACh 100 μM): 3090 nM | IC50 (α3β4 nAChR; IC50 (95% CI), Peak, α3β4, VH −80 mV, peak current, ACh 100 μM): 2620 nM | IC50 (α3β4 nAChR; IC50 (95% CI), Peak, α3β4, VH −100 mV, peak current, ACh 100 μM): 2030 nM | IC50 (α3β4 nAChR; IC50, α3β4, late current, −80 mV): 100 nM | surmountability of late current inhibition (α3β4 nAChR; α3β4, 0.3 μM toxin, late current, −80 mV): insurmountable | surmountability of peak current inhibition by higher ACh concentrations (α3β4 nAChR; α3β4, 10 μM toxin, peak current, −80 mV): surmountable | peak current during the first ACh application after removal of toxin (6 min) (α3β4 nAChR; α3β4, after 10 μM toxin, mean of all cells, −80 mV, not significantly greater than control (p = 0.217)): 119.4 % control response | increase in late current IC50 as compared to α3β4 (α3β4(F255V) nAChR; α3β4(F255V) vs α3β4, late current, −80 mV): 3.3 fold | reduction in peak current IC50 as compared to α3β4 (α3β4(F255V) nAChR; α3β4(F255V) vs α3β4, peak current, −80 mV): no difference | IC50 (α3β4(F255V) nAChR; [2]): 520 nM | IC50 (α3β4(F255V) nAChR; [3]): 1630 nM | IC50 (α3β4(F255V) nAChR; [4]): 360 nM | IC50 (α3β4(F255V) nAChR; [5]): 2780 nM | IC50 (α3β4(F255V) nAChR; [6]): 68 nM | IC50 (α3β4(F255V) nAChR; [7]): 1050 nM | IC50 (α7 nAChR; Late, α7, VH −60 mV, based on the area under the current trace (no stable late current)): 8320 nM | IC50 (α7 nAChR; Late, α7, VH −80 mV, based on the area under the current trace (no stable late current)): 4900 nM and 4920 nM | IC50 (α7 nAChR; Late, α7, VH −100 mV, based on the area under the current trace (no stable late current)): 5020 nM | IC50 (α7 nAChR; Peak, α7, VH −60 mV, peak current): 18700 nM | IC50 (α7 nAChR; Peak, α7, VH −80 mV, peak current): 11100 nM | IC50 (α7 nAChR; Peak, α7, VH −100 mV, peak current): 12100 nM | recovery of the late current after 6 min (α7 nAChR; α7, 10 μM toxin, −80 mV): complete | times less sensitive than the most sensitive subtype (α7 nAChR; α7 vs α3β4 (for PhTX-12: α1β1γδ along with α3β4), late current IC50, −80 mV): 49 times | IC50 (α1β1γδ nAChR; Late, VH −60 mV, late current (1 min)): 70 nM | IC50 (α1β1γδ nAChR; Late, VH −80 mV, late current (1 min)): 100 nM | IC50 (α1β1γδ nAChR; Late, VH −100 mV, late current (1 min)): 71 nM | IC50 (α1β1γδ nAChR; Peak, VH −60 mV, peak current): 3160 nM | IC50 (α1β1γδ nAChR; Peak, VH −80 mV, peak current): 6180 nM | IC50 (α1β1γδ nAChR; Peak, VH −100 mV, peak current): 5020 nM | surmountability of late current inhibition (α1β1γδ nAChR; 0.3 μM toxin, late current, −80 mV): insurmountable | surmountability of peak current inhibition by increasing ACh concentrations (α1β1γδ nAChR; 10 μM toxin, peak current, −80 mV): surmountable | voltage dependence of inhibition, late current (α1β1γδ nAChR; late current IC50 values, VH −60 to −100 mV): voltage-independent | lower potency at human muscle-type nAChRs in TE671 cells than in the present study [1]: 11 fold | effect on membrane current when applied alone (nAChRs; 100 μM applied alone, VH = −80 mV, oocytes expressing nAChRs): did not produce any effect on membrane current | voltage dependence of inhibition of peak current (nAChRs; all nAChRs, peak current, VH −60 to −100 mV): voltage-independent for all nAChRs except for homomeric α7 | reversibility of inhibition of nAChRs (nAChRs; all subunit combinations, 10 μM toxin, −80 mV): fully or almost reversible after 6 min | IC50 (α3β2 nAChR; Late, α3β2, VH −60 mV, late current (1 min)): 3200 nM | IC50 (α3β2 nAChR; Late, α3β2, VH −80 mV, late current (1 min)): 2570 nM | IC50 (α3β2 nAChR; Late, α3β2, VH −100 mV, late current (1 min)): 1380 nM | IC50 (α3β2 nAChR; Peak, α3β2, VH −60 mV, peak current): 65200 nM | IC50 (α3β2 nAChR; Peak, α3β2, VH −80 mV, peak current): 60000 nM and 60600 nM | IC50 (α3β2 nAChR; Peak, α3β2, VH −100 mV, peak current): 74400 nM | recovery of the late current after 6 min (α3β2 nAChR; α3β2, 10 μM toxin, −80 mV): complete | recovery of the peak current after 6 min (α3β2 nAChR; α3β2, 10 μM toxin, −80 mV): complete | times less sensitive than the most sensitive subtype (α3β2 nAChR; α3β2 vs α3β4 (for PhTX-12: α1β1γδ along with α3β4), late current IC50, −80 mV): 26 times
